Measured values as given in US10577315B2, “Compositions and methods for treatment of prostate carcinoma” (Pellficure Pharmaceuticals, Inc., priority 2014, dated 2020).

Experiments:
[1] = system: H2B-GFP-PTEN-P2 tumor cells; assay: In vivo effect combined with castration in the pseudo-orthotopic chamber model for prostate cancer; design: species or system mouse; conditions: orally once a day in sesame seed oil, equimolar to 1 mg/kg plumbagin, castrated male nu/nu mice
Text: A syngeneic pseudo-orthotopic in vivo model was developed to study the early steps of prostate cancer. Chambers are surgically placed into the dorsal skinfold of male mice. Briefly, male mice (25-30 g body weight) are anesthetized and placed on a heating pad. Two symmetrical titanium frames are implanted into the dorsal skinfold. A circular layer is excised from one of the skin layers. The underlying muscle and subcutaneous tissues are covered with a glass coverslip incorporated in one of the frames. After a recovery period of 2-3 days, stoma tissue and tumor cells are carefully placed in the chamber.
Male Nude mice (25-35 g body weight) are anesthetized (7.3 mg ketamine hydrochloride and 2.3 mg xylazine/100 g body weight, i.p.) and placed on a heating pad. Two symmetrical titanium frames are implanted into a dorsal skinfold, so as to sandwich the extended double layer of skin. […]
Liquid overlay plates are generated using 1% Agarose melted in DMEM that is added to round-bottom 96-well plates (50 ul/well). […] Viability is determined using Trypan blue. […]. The size of the implanted spheroid can be determined precisely to minimize variations between animals. […]
Fluorescence microscopy is performed using a Mikron Instrument Microscope equipped with epi-illuminator and video-triggered stroboscopic illumination from a xenon arc (MV-7600, EG&G). […]

[2] = system: PTEN-P2/GFP prostate cancer cells; assay: Effect of 1,4-naphthoquinone analogs on PTEN-P2/GFP cell proliferation (WST-1 cell viability, 24 h); type: cell-based; conditions: Mus musculus, WST-1, medium with 10% FBS and DHT, read-out: PTEN-P2/GFP cell proliferation, percent of control
Procedure, shortened: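 PTEN-P2/GFP cells, 8000/well, in medium with 10% FBS and 10^−8M DHT, dosed next day with increasing analog concentrations (constant DMSO) for 24 h at 37 °C, 5% CO2. Viability read by WST-1 after 3 h at 37 °C, OD at 460 nm.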

| Compound | in vivo efficiency of combination treatment with castration compared with plumbagin and castration (FIG. 9) [1] | activity at 1 µM ([2]; 1 μM) [%] | activity at 2 µM ([2]; 2 μM) [%] | activity at 3 µM ([2]; 3 μM) [%] | activity at 4 µM ([2]; 4 μM) [%] | activity at 5 µM ([2]; 5 μM) [%] | activity at 6 µM ([2]; 6 μM) [%] | activity at 7 µM ([2]; 7 μM) [%] | activity at 10 µM ([2]; 10 μM) [%] | activity at 25 µM ([2]; 25 μM) [%] | activity at 50 µM ([2]; 50 μM) [%] |
| --- | --- | --- | --- | --- | --- | --- | --- | --- | --- | --- | --- |
| O=C1C=C(Nc2ccccc2)C(=O)c2ccccc21 [Analog F35, 2-(phenylamino)naphthalene-1,4-dione] | more efficient in vivo than treatment with plumbagin and castration | – | – | – | – | – | – | – | – | – | – |
| COc1cccc2c1C(=O)C=CC2=O [Analog F51, 5-methoxy-1,4-naphthoquinone] | more efficient in vivo than treatment with plumbagin and castration | 103 | 104 | 105 | 105 | 103 | 94 | 85.7 | 43.4 | 9.58 | 10.3 |
